{"source": "patent US12690589B2", "about": "“Herbicidal compositions comprising pyroxasulfone” (BASF SE, priority 2024, dated 2026)", "test_in_all_cases": "Post-emergence application in field trials, herbicidal activity (damage scale 0 to 100%)", "assay_type_in_all_cases": "in vivo", "key": {"[1]": {"test_system": "Echinochloa crus-galli (ECHCG)", "conditions": "stage 23-30, height 15-20 cm", "protocol": "In the examples below, using the method of S. R. Colby (1967) “Calculating synergistic and antagonistic responses of herbicide combinations”, Weeds 15, p. 22ff., the value E, which is expected if the activity of the individual active compounds is only additive, was calculated:\n[formula] • wherein • X=percent activity using active herbicide A at an application rate a; • Y=percent activity using active herbicide B (e.g. pyroxasulfone) at an application rate b; • E=expected activity (in %) by A+B at application rates a+b.\nIf the value found experimentally is higher than the value E calculated according to Colby, a synergistic effect is present.\nOn field test sites, natural weed infestation or seeded weeds were treated post-emergence of the weeds.\nIn the field trials, the weeds were treated as indicated below.\nIn the following experiments, the herbicidal activity for the individual herbicidal compositions (solo and mixture applications) was assessed at the indicated days after treatment (DAT). The assessments for the damage on undesired weeds caused by the composition was carried out using a scale from 0 to 100%, compared to the untreated control plants. Here, 0 means no damage and 100 means complete destruction of the plants.\nHerbicide A-1 (50 g/l) and pyroxasulfone (85% WG) were, together with addition of 0.5% MSO (methylated seed oil) as adjuvant, formulated in water as distribution medium (water volume 200 l/ha) and sprayed with commercial flat fan nozzles."}, "[2]": {"test_system": "Hordeum vulgare (HORVW)", "conditions": "stage 23-29, height 20-25 cm", "how_it_was_run": "(§1)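 Field sites with natural or seeded weeds were sprayed post-emergence via flat fan nozzles in 200 l/ha water plus 0.25 v/v % MSO adjuvant, solo or mixed with pyroxasulfone and other partners. Damage was scored 0–100% versus untreated plants at indicated DAT. Colby expected values were used to judge synergy.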"}, "[3]": {"test_system": "Setaria verticillata (SETVE)", "conditions": "stage 21-23, height 8-16 cm", "how_it_was_run": "as §1"}, "[4]": {"test_system": "Digitaria sanguinalis (DIGSA)", "conditions": "stage 22, height 10-15 cm", "how_it_was_run": "as §1"}, "[5]": {"test_system": "Amaranthus retroflexus (AMARE)", "conditions": "21 DAT, stage 31-49, height 10-12 cm", "how_it_was_run": "as §1"}, "[6]": {"test_system": "Lolium multiflorum (LOLMU)", "conditions": "stage 22-25, height 20-25 cm", "how_it_was_run": "as §1"}, "[7]": {"conditions": "7 DAT, g ai/ha A-1 12.5, B 70, C-12 252"}, "[8]": {"conditions": "21 DAT, g ai/ha A-1 12.5, B 70, C-12 252"}, "[9]": {"conditions": "28 DAT, g ai/ha A-1 12.5, B 70, C-12 252"}, "[10]": {"conditions": "Table 8.2, 21 DAT, g ai/ha A-1 18, B 70, C-12 1066"}, "[11]": {"conditions": "7 DAT, g ai/ha A-1 18, B 70, C-12 252"}, "[12]": {"conditions": "7 DAT, g ai/ha A-1 18, B 90, C-12 252"}, "[13]": {"conditions": "21 DAT, g ai/ha A-1 18, B 70, C-12 252"}, "[14]": {"conditions": "21 DAT, g ai/ha A-1 18, B 90, C-12 252"}, "[15]": {"conditions": "28 DAT, g ai/ha A-1 18, B 70, C-12 252"}, "[16]": {"conditions": "28 DAT, g ai/ha A-1 18, B 90, C-12 252"}, "[17]": {"conditions": "42 DAT, g ai/ha A-1 18, B 90, C-12 252"}, "[18]": {"conditions": "Table 8.1, 7 DAT, g ai/ha A-1 18, B 70, C-12 1066"}}}
{"smiles": "CP(=O)(O)CC[C@H](N)C(=O)O.N", "note": "[C-12, glufosinate-P-ammonium]", "values": [{"measurement": "% Herbicidal activity", "setting": "[1]; [7]", "value": 70, "unit": "%"}, {"measurement": "% Herbicidal activity", "setting": "[1]; [8]", "value": 60, "unit": "%"}, {"measurement": "% Herbicidal activity", "setting": "[1]; [9]", "value": 60, "unit": "%"}, {"measurement": "% Herbicidal activity", "setting": "[1]; [10]", "value": 10, "unit": "%"}, {"measurement": "% Herbicidal activity", "setting": "[1]; Table 8.2, 21 DAT, g ai/ha A-1 18, B 90, C-12 1066", "value": 10, "unit": "%"}, {"measurement": "% Herbicidal activity", "setting": "[1]; Table 8.3, 28 DAT, g ai/ha A-1 18, B 70, C-12 1066", "value": 10, "unit": "%"}, {"measurement": "% Herbicidal activity", "setting": "[1]; Table 8.3, 28 DAT, g ai/ha A-1 18, B 90, C-12 1066", "value": 10, "unit": "%"}, {"measurement": "% Herbicidal activity", "setting": "[2]; [7]", "value": 40, "unit": "%"}, {"measurement": "% Herbicidal activity", "setting": "[2]; [11]", "value": 40, "unit": "%"}, {"measurement": "% Herbicidal activity", "setting": "[2]; [12]", "value": 40, "unit": "%"}, {"measurement": "% Herbicidal activity", "setting": "[2]; [8]", "value": 30, "unit": "%"}, {"measurement": "% Herbicidal activity", "setting": "[2]; [13]", "value": 30, "unit": "%"}, {"measurement": "% Herbicidal activity", "setting": "[2]; [14]", "value": 30, "unit": "%"}, {"measurement": "% Herbicidal activity", "setting": "[2]; [9]", "value": 30, "unit": "%"}, {"measurement": "% Herbicidal activity", "setting": "[2]; [15]", "value": 30, "unit": "%"}, {"measurement": "% Herbicidal activity", "setting": "[2]; [16]", "value": 30, "unit": "%"}, {"measurement": "% Herbicidal activity", "setting": "[3]; [11]", "value": 65, "unit": "%"}, {"measurement": "% Herbicidal activity", "setting": "[3]; [12]", "value": 65, "unit": "%"}, {"measurement": "% Herbicidal activity", "setting": "[3]; [14]", "value": 65, "unit": "%"}, {"measurement": "% Herbicidal activity", "setting": "[3]; 42 DAT, g ai/ha A-1 12.5, B 70, C-12 252", "value": 35, "unit": "%"}, {"measurement": "% Herbicidal activity", "setting": "[3]; [17]", "value": 35, "unit": "%"}, {"measurement": "% Herbicidal activity", "setting": "[3]; [18]", "value": 25, "unit": "%"}, {"measurement": "% Herbicidal activity", "setting": "[3]; Table 8.2, 21 DAT, g ai/ha A-1 12.5, B 70, C-12 1066", "value": 25, "unit": "%"}, {"measurement": "% Herbicidal activity", "setting": "[3]; Table 8.4, 42 DAT, g ai/ha A-1 12.5, B 70, C-12 1066", "value": 15, "unit": "%"}, {"measurement": "% Herbicidal activity", "setting": "[4]; [11]", "value": 70, "unit": "%"}, {"measurement": "% Herbicidal activity", "setting": "[4]; [12]", "value": 70, "unit": "%"}, {"measurement": "% Herbicidal activity", "setting": "[4]; [13]", "value": 70, "unit": "%"}, {"measurement": "% Herbicidal activity", "setting": "[4]; [14]", "value": 70, "unit": "%"}, {"measurement": "% Herbicidal activity", "setting": "[4]; 42 DAT, g ai/ha A-1 18, B 70, C-12 252", "value": 55, "unit": "%"}, {"measurement": "% Herbicidal activity", "setting": "[4]; [17]", "value": 55, "unit": "%"}, {"measurement": "% Herbicidal activity", "setting": "[4]; [18]", "value": 20, "unit": "%"}, {"measurement": "% Herbicidal activity", "setting": "[4]; [10]", "value": 20, "unit": "%"}, {"measurement": "% Herbicidal activity", "setting": "[4]; Table 8.4, 42 DAT, g ai/ha A-1 18, B 70, C-12 1066", "value": 10, "unit": "%"}, {"measurement": "% Herbicidal activity", "setting": "[5]; g ai/ha A-1 18, B 70, C-12 252", "value": 90, "unit": "%"}, {"measurement": "% Herbicidal activity", "setting": "[5]; g ai/ha A-1 18, B 90, C-12 252", "value": 90, "unit": "%"}, {"measurement": "% Herbicidal activity", "setting": "[6]; [7]", "value": 50, "unit": "%"}, {"measurement": "% Herbicidal activity", "setting": "[6]; [11]", "value": 50, "unit": "%"}, {"measurement": "% Herbicidal activity", "setting": "[6]; [12]", "value": 50, "unit": "%"}, {"measurement": "% Herbicidal activity", "setting": "[6]; [8]", "value": 30, "unit": "%"}, {"measurement": "% Herbicidal activity", "setting": "[6]; [13]", "value": 30, "unit": "%"}, {"measurement": "% Herbicidal activity", "setting": "[6]; [14]", "value": 30, "unit": "%"}, {"measurement": "% Herbicidal activity", "setting": "[6]; [9]", "value": 30, "unit": "%"}, {"measurement": "% Herbicidal activity", "setting": "[6]; [15]", "value": 30, "unit": "%"}, {"measurement": "% Herbicidal activity", "setting": "[6]; [16]", "value": 30, "unit": "%"}]}
